Assay results: ChEMBL document CHEMBL3351443, “Development of 3-hydroxycinnamamide-based HDAC inhibitors with potent in vitro and in vivo anti-tumor activity” (Eur J Med Chem, 2015)
Blank lines part the entries; values can stand above or below the molecule they belong to.

Assays:
[1] = target: Histone deacetylase; experiment: Inhibition of HDAC in human HeLa cell extract using Boc-Lys (acetyl)-AMC as substrate incubated for 10 mins prior to substrate addition measured after 30 mins by fluorescence assay; assay type: protein assay
[2] = Antiproliferative activity against human U266 cells after 48 hrs by MTT assay; assay type: functional, cell-based; conditions: U-266, 48 h
[3] = Antiproliferative activity against human PC3 cells after 48 hrs by MTT assay; assay type: functional, cell-based; conditions: PC-3, 48 h
[4] = tested on: U-937; experiment: Induction of apoptosis in human U937 cells assessed as early apoptotic cells at 1.5 uM after 24 hrs by annexin-V/propidium iodide staining-based flow cytometry (reference value: 3.81%); assay type: functional
[5] = tested on: U-937; experiment: Induction of apoptosis in human U937 cells assessed as late apoptotic cells at 1.5 uM after 24 hrs by annexin-V/propidium iodide staining-based flow cytometry (reference value: 2.77%); assay type: functional
[6] = tested on: U-937; experiment: Induction of apoptosis in human U937 cells assessed as dead cells at 1.5 uM after 24 hrs by annexin-V/propidium iodide staining-based flow cytometry (reference value: 0.95%); assay type: functional
[7] = tested on: U-937; experiment: Induction of apoptosis in human U937 cells assessed as viable cells at 1.5 uM after 24 hrs by annexin-V/propidium iodide staining-based flow cytometry (reference value: 92.47%); assay type: functional
[8] = tested on: U-937; experiment: Induction of apoptosis in human U937 cells assessed as apoptotic cells at 1.5 uM after 24 hrs by annexin-V/propidium iodide staining-based flow cytometry; assay type: functional
[9] = Antitumor activity against human U937 cells xenografted in athymic nude mouse at 120 mg/kg/day, po after 16 days relative to control; assay type: functional, U-937
[10] = target: Histone deacetylase 1 (Homo sapiens, UniProt Q13547); experiment: Inhibition of HDAC1 (unknown origin)
Sequence of Histone deacetylase 1 (Q13547 whole entry): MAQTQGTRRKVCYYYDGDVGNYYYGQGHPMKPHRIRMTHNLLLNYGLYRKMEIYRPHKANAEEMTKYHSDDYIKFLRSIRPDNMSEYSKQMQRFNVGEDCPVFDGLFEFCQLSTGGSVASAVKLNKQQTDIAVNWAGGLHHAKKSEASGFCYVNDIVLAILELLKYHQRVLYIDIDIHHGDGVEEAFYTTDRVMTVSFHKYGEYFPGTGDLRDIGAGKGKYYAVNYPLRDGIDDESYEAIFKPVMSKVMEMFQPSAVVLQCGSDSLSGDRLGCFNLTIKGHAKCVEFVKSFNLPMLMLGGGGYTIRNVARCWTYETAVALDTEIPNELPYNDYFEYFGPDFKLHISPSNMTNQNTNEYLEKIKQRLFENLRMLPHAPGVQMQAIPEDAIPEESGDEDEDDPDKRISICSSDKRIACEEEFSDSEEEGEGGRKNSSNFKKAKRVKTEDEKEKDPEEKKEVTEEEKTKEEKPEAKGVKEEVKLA

[11] = target: Histone deacetylase 2 (Homo sapiens, UniProt Q92769); experiment: Inhibition of HDAC2 (unknown origin)
Sequence of Histone deacetylase 2 (Q92769 whole entry): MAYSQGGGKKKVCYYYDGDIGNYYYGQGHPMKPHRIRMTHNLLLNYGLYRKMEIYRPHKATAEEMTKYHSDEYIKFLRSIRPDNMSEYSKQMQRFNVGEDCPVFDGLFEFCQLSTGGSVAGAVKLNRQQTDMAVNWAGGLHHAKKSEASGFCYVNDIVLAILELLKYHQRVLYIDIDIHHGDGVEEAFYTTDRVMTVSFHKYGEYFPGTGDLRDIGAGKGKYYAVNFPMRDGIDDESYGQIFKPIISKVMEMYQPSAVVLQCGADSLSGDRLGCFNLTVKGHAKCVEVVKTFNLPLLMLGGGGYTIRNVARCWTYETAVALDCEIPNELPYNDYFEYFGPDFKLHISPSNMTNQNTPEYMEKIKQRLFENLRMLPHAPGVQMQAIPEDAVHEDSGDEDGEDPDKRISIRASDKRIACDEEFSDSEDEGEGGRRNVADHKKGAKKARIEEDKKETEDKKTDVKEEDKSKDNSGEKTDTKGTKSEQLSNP

[12] = target: Histone deacetylase 3 (Homo sapiens, UniProt O15379); experiment: Inhibition of HDAC3 (unknown origin)
Sequence of Histone deacetylase 3 (O15379 whole entry): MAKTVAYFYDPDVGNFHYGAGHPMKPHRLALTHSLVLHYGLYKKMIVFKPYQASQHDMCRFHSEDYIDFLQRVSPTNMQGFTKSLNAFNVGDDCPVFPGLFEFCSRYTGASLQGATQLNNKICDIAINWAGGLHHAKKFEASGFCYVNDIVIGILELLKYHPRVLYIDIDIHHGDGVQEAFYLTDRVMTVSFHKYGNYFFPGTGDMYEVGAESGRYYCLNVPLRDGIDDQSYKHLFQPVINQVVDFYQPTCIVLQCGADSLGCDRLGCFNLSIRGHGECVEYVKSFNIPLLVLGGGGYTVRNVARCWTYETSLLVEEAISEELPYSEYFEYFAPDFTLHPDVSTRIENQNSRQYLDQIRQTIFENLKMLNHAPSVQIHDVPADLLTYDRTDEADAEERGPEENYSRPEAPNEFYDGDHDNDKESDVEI

[13] = target: T1, Protein deacetylase HDAC6 (Homo sapiens, UniProt Q9UBN7); experiment: Inhibition of HDAC6 (unknown origin)
T1 sequence (Q9UBN7 whole entry): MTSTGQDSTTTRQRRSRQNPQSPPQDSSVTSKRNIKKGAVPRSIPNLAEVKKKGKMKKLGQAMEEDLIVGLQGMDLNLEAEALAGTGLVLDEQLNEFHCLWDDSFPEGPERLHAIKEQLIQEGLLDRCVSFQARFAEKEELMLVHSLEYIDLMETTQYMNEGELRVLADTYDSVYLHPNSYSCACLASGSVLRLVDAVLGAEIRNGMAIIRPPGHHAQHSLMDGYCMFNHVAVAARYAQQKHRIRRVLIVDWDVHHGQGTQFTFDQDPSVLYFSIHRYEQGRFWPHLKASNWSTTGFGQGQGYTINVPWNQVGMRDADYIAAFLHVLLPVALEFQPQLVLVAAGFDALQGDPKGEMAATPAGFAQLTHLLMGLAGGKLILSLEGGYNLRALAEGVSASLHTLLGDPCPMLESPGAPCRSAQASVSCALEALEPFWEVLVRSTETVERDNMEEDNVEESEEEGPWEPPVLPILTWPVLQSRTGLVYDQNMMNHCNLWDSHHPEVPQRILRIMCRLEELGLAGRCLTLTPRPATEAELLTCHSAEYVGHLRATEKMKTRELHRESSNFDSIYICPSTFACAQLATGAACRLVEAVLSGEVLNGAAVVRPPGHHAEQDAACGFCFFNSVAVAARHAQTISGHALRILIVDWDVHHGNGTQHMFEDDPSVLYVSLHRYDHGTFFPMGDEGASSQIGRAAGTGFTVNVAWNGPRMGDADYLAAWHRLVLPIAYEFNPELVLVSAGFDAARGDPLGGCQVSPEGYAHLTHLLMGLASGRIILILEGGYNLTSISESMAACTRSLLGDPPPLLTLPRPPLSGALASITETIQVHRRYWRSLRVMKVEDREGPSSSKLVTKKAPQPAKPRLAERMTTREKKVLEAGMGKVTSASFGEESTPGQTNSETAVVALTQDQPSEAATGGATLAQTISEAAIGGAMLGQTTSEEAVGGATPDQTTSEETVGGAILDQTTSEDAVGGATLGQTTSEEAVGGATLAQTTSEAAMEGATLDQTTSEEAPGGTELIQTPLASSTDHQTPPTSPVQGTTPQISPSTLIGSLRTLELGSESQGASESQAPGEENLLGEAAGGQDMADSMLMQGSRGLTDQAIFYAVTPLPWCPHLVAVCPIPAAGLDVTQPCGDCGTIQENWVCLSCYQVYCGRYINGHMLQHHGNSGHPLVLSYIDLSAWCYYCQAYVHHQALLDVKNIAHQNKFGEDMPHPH

[14] = target: T2, Histone deacetylase 8 (Homo sapiens, UniProt Q9BY41); experiment: Inhibition of HDAC8 (unknown origin)
T2 sequence (Q9BY41 whole entry): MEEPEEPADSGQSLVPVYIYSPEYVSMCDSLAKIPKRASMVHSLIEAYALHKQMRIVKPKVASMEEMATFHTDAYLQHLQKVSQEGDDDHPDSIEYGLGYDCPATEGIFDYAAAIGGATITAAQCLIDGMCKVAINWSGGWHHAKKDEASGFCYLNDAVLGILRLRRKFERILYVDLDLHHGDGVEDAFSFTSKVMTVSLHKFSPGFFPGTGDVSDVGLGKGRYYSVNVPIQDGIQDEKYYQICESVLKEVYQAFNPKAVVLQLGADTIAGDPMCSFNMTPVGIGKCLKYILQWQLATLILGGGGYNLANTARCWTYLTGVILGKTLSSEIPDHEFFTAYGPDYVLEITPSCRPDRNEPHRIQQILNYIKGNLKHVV

[15] = target: Histone deacetylase 4 (Homo sapiens, UniProt P56524); experiment: Inhibition of HDAC4 (unknown origin)
Sequence of Histone deacetylase 4 (P56524 whole entry): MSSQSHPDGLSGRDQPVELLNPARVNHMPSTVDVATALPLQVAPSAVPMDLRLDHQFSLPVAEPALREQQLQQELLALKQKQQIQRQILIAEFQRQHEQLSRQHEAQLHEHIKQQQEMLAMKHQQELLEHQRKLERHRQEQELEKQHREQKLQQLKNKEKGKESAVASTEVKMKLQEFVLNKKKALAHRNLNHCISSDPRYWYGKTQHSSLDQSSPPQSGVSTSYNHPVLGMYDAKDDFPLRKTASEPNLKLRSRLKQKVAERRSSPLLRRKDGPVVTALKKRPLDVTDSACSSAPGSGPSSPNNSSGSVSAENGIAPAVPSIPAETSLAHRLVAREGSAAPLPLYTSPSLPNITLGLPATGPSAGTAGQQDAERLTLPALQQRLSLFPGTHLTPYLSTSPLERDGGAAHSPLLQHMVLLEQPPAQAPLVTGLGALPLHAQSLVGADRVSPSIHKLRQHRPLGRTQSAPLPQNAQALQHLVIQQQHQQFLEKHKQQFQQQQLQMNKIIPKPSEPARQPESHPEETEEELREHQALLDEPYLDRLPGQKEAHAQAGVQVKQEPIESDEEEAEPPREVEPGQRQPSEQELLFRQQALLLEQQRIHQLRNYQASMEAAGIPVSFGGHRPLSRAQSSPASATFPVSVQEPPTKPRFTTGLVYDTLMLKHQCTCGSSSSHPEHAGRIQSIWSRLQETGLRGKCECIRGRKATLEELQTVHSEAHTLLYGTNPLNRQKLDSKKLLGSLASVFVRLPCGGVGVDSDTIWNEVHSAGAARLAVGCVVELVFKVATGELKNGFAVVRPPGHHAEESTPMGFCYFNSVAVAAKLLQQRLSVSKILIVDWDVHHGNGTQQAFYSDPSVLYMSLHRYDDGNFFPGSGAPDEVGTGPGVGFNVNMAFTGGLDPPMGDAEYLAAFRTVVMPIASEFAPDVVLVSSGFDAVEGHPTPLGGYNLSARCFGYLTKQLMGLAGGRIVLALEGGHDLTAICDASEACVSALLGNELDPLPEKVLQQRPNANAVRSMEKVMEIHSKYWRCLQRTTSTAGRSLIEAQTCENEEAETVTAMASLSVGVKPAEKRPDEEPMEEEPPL

[16] = target: T3, Histone deacetylase 11 (Homo sapiens, UniProt Q96DB2); experiment: Inhibition of HDAC11 (unknown origin)
T3 sequence (Q96DB2 whole entry): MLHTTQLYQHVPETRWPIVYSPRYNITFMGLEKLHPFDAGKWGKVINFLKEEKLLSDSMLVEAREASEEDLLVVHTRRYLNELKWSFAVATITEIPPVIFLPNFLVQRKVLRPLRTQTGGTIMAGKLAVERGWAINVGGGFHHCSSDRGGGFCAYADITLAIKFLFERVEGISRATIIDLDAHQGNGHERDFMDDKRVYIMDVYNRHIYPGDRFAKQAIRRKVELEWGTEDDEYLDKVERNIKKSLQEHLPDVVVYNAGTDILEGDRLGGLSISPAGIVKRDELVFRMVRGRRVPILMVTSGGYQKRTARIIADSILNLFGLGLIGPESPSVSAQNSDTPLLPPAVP

[17] = Antiproliferative activity against human U937 cells after 48 hrs by MTT assay; assay type: functional, cell-based; conditions: U-937, 48 h
[18] = tested on: K562; experiment: Antiproliferative activity against human K562 cells after 48 hrs by MTT assay; assay type: functional, cell-based; conditions: K562, 48 h
[19] = tested on: HEL; experiment: Antiproliferative activity against human HEL cells after 48 hrs by MTT assay; assay type: functional, cell-based
[20] = Antiproliferative activity against human KG1 cells after 48 hrs by MTT assay; assay type: functional, cell-based; conditions: KG-1, 48 h
[21] = Antiproliferative activity against human HL60 cells after 48 hrs by MTT assay; assay type: functional, cell-based; conditions: HL-60, 48 h
[22] = tested on: MDA-MB-231; experiment: Antiproliferative activity against human MDA-MB-231 cells after 48 hrs by MTT assay; assay type: functional, cell-based; conditions: MDA-MB-231, 48 h
[23] = tested on: MCF7; experiment: Antiproliferative activity against human MCF7 cells after 48 hrs by MTT assay; assay type: functional, cell-based; conditions: MCF7, 48 h
[24] = Antiproliferative activity against human HCT116 cells after 48 hrs by MTT assay; assay type: functional, cell-based; conditions: HCT-116, 48 h
[25] = tested on: A549; experiment: Antiproliferative activity against human A549 cells after 48 hrs by MTT assay; assay type: functional, cell-based; conditions: A549, 48 h
[26] = Antitumor activity against human U937 cells xenografted in athymic nude mouse assessed as tumor growth inhibition at 120 mg/kg/day, po after 16 days; assay type: functional; conditions: U-937, 384 h, read-out: TGI
[27] = tested on: Mus musculus; experiment: Toxicity in athymic nude mouse xenografted with human U937 cells assessed as weight loss at 120 mg/kg/day, po after 16 days; assay type: organism-based, U-937; set-up: route oral; conditions: in vivo, 384 h
[28] = tested on: Mus musculus; experiment: Toxicity in athymic nude mouse xenografted with human U937 cells assessed as toxic sign in liver at 120 mg/kg/day, po after 16 days; assay type: organism-based, U-937; set-up: route oral; conditions: in vivo, 384 h
[29] = tested on: Mus musculus; experiment: Toxicity in athymic nude mouse xenografted with human U937 cells assessed as toxic sign in spleen at 120 mg/kg/day, po after 16 days; assay type: organism-based, U-937; set-up: route oral; conditions: in vivo, 384 h

SMILES: O=C(/C=C/c1cccc(OC[C@H](Cc2c[nH]c3ccccc23)NC(=O)CCCc2ccccc2)c1)NO
IC50 [1]: 498.6 nM | IC50 [2]: 3620 nM

SMILES: O=C(/C=C/c1cccc(OC[C@H](Cc2c[nH]c3ccccc23)NC(=O)c2ccc(Cl)cc2Cl)c1)NO
IC50 [1]: 258.9 nM | IC50 [2]: 2500 nM

SMILES: O=C(CCCCCCC(=O)Nc1ccccc1)NO [VORINOSTAT]
IC50 [3]: 3570 nM | Activity [4]: 6.65% | Activity [5]: 14.57% | Activity [6]: 6.16% | Activity [7]: 72.62% | Activity [8]: 21.22% | T/C [9]: 71.7%

SMILES: O=C(/C=C/c1cccc(OC[C@H](Cc2c[nH]c3ccccc23)NC(=O)c2ccc(Cl)cc2)c1)NO
IC50 [2]: 1740 nM

SMILES: CC(C)(C)OC(=O)N[C@H](COc1cccc(/C=C/C(=O)NO)c1)Cc1c[nH]c2ccccc12
IC50 [1]: 917.4 nM | IC50 [2]: 4180 nM

SMILES: CC(NC(=O)OC(C)(C)C)C(=O)N[C@H](COc1cccc(/C=C/C(=O)NO)c1)Cc1c[nH]c2ccccc12 (stereo partly specified)
IC50 [1]: 861.5 nM | IC50 [2]: 6560 nM

SMILES: O=C(/C=C/c1cccc(OC[C@H](Cc2c[nH]c3ccccc23)NC(=O)CCc2ccccc2)c1)NO
IC50 [1]: 464.5 nM | IC50 [2]: 6170 nM

SMILES: CC(C)(C)OC(=O)NCC(=O)N[C@H](COc1cccc(/C=C/C(=O)NO)c1)Cc1c[nH]c2ccccc12
IC50 [1]: 886.4 nM | IC50 [2]: 8950 nM

SMILES: COc1ccc(C(=O)N[C@H](COc2cccc(/C=C/C(=O)NO)c2)Cc2c[nH]c3ccccc23)cc1
IC50 [1]: 191.2 nM | IC50 [2]: 410 nM | IC50 [17]: 360 nM | IC50 [18]: 3460 nM | IC50 [19]: 380 nM | IC50 [20]: 1080 nM | IC50 [21]: 3700 nM | IC50 [22]: 970 nM | IC50 [3]: 3880 nM | IC50 [23]: 2490 nM | IC50 [24]: 2310 nM | IC50 [25]: 4500 nM | IC50 [10]: 219 nM | IC50 [11]: 865 nM | IC50 [12]: 224 nM | IC50 [13]: 93.8 nM | Activity [4]: 11.54% | Activity [5]: 23.99% | Activity [6]: 6.92% | viability at 1.5 µM ([7]; Homo sapiens, U-937, 24 h, read-out: Activity): 57.5% | Activity [8]: 35.53% | inhibition in vivo at 120 mg/kg/day [26]: 42.7% | T/C [9]: 56.4% | Activity [27]: Non-toxic | Activity [28]: Non-toxic | Activity [29]: Non-toxic

SMILES: O=C(/C=C/c1cccc(OC[C@H](Cc2c[nH]c3ccccc23)NC(=O)Cc2ccccc2)c1)NO
IC50 [1]: 447.7 nM | IC50 [2]: 6570 nM

More lines, main results first:

IC50 [1]: 692.4 nM
SMILES: O=C(/C=C/c1cccc(OC[C@H](Cc2c[nH]c3ccccc23)NC(=O)c2ccc(Br)cc2)c1)NO
IC50 [2]: 1390 nM

IC50 [1]: 218.7 nM
SMILES: Cc1ccc(C(=O)N[C@H](COc2cccc(/C=C/C(=O)NO)c2)Cc2c[nH]c3ccccc23)cc1
IC50 [2]: 390 nM

IC50 [1]: 421.4 nM
SMILES: O=C(/C=C/c1cccc(OC[C@H](Cc2c[nH]c3ccccc23)NC(=O)c2ccccc2)c1)NO
IC50 [2]: 1230 nM

IC50 [1]: 779 nM
SMILES: O=C(/C=C/c1cccc(OC[C@H](Cc2c[nH]c3ccccc23)NC(=O)c2cc(Cl)cc(Cl)c2)c1)NO
IC50 [2]: 3030 nM

IC50 [1]: 81.9 nM
SMILES: O=C(/C=C/c1cccc(OC[C@H](Cc2c[nH]c3ccccc23)NC(=O)c2ccccc2Cl)c1)NO
IC50 [2]: 740 nM

IC50 [1]: 67.4 nM
SMILES: COc1cccc(C(=O)N[C@H](COc2cccc(/C=C/C(=O)NO)c2)Cc2c[nH]c3ccccc23)c1
IC50 [2]: 3090 nM

IC50 [1]: 38.5 nM | IC50 [10]: 33.2 nM | IC50 [11]: 64.8 nM | IC50 [12]: 28.7 nM | IC50 [13]: 23.9 nM | IC50 [14]: 87.4 nM | IC50 [15]: 440 nM | IC50 [16]: 52.7 nM
SMILES: COc1ccccc1C(=O)N[C@H](COc1cccc(/C=C/C(=O)NO)c1)Cc1c[nH]c2ccccc12
IC50 [2]: 1430 nM

IC50 [1]: 357.9 nM
SMILES: O=C(/C=C/c1cccc(OC[C@H](Cc2c[nH]c3ccccc23)NC(=O)c2cccc(Cl)c2)c1)NO
IC50 [2]: 3080 nM
